The test system of assay [1] is TNFα. Put plainly: IRAK4 Monocyte TNFα Cell Based Assay. The settings on record: read-out: EC50 MONO TNF HTRF. The arrangement: species or system human. An outline of the steps: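 TNFα release quantified by HTRF (cryptate/XL665 antibody pair, overnight at RT) after 1 h compound pre-incubation (0.1% DMSO) and 4 h LPS challenge at 50 pg/ml, 37 °C, 5,000 monocytes per well. Signal ratio normalised between unstimulated (0%) and stimulated (100%) controls.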

Assay [2] addresses IRAK4 enzyme (Homo sapiens (Human), UniProt Q9NWZ3). Put plainly: IRAK4 Biochemical Assay (TR-FRET, STK1 KinEASE). The method in brief:
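TR-FRET endpoint (KinEASE STK1): phosphopeptide detected with cryptate antibody and tracer after EDTA quench, ratio 665/615 nm, normalized to no-inhibitor wells as % inhibition. Reaction: 0.75 nM IRAK4, […] peptide, 500 μM ATP, pH 7.0 HEPES, 120 min room temperature, after 15 min compound preincubation with enzyme.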
(In general: Time-resolved FRET reads energy transfer from a long-lived donor to a nearby acceptor.)

The mark [3] stands for this setting: Homo sapiens, Monocyte, human monocytes, second part of Table 2, compounds 33-343, unit inferred.

Our source for the EC50 and IC50 values is patent publication US11046686B2, “Thiadiazole IRAK4 compounds” (Gilead Sciences, Inc., priority 2018, dated 2021).

Where two headings read alike, the source gives them in different places.

Chain of IRAK4 enzyme (Q9NWZ3 whole entry): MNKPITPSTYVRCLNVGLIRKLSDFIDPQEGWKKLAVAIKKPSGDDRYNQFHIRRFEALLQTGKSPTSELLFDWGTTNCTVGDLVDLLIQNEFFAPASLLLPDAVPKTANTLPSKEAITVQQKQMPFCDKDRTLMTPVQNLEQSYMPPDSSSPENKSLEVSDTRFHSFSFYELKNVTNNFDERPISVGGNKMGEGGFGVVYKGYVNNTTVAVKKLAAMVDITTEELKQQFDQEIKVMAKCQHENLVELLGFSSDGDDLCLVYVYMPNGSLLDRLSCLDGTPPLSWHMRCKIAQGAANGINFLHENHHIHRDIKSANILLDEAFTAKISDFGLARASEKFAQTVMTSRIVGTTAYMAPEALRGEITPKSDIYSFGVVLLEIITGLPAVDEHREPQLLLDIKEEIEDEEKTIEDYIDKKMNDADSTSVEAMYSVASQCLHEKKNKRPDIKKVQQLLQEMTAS

Broadly, the EC50 is the concentration at which the effect is half-maximal. One may read the IC50 as the concentration that gives 50% inhibition. As to `CC(=O)N[C@H]1CC[C@H](c2nnc(-c3cnc(-c4ccc5cc(C#N)cnn45)cc3N[C@H](C)C#N)s2)CC1` [Example 316, N-((1R,4r)-4-(5-(4-(((R)-1-cyanoethyl)amino)-6-(3-cyanopyrrolo[1,2-b]pyridazin-7-yl)pyridin-3-yl)-1,3,4-thiadiazol-2-yl)cyclohexyl)acetamide], in assay [1] (setting [3]), the EC50 is 5.3 nM. Moreover, the half-maximal inhibitory concentration (IC50) in assay [2] is 0.59 nM.
The like results for `[2H]C([2H])([2H])C(O)(CCc1nnc(-c2cnc(-c3ccc4cc(C#N)cnn34)cc2NC(C)C)s1)C([2H])([2H])[2H]` [Example 317, 7-(5-(5-(3-hydroxy-3-(methyl-d3)butyl-4,4,4-d3)-1,3,4-thiadiazol-2-yl)-4-(isopropylamino)pyridin-2-yl)pyrrolo[1,2-b]pyridazine-3-carbonitrile] were, in that order, 4.4 nM and 0.6 nM.
As for `CC(C)Nc1cc(-c2ccc3cc(C#N)cnn23)ncc1-c1nnc(CC(=O)O)s1` [Example 319, 2-(5-(6-(3-cyanopyrrolo[1,2-b]pyridazin-7-yl)-4-(isopropylamino)pyridin-3-yl)-1,3,4-thiadiazol-2-yl)acetic acid], the EC50 in assay [1] (setting [3]) was 126 nM. This compound registered an IC50 in assay [2] of 1.68 nM.
Turning to `CC(C)Nc1cc(-c2ccc3cc(C#N)cnn23)ncc1-c1nnc(CC(C)(C)O)s1` [Example 320, 7-(5-(5-(2-hydroxy-2-methylpropyl)-1,3,4-thiadiazol-2-yl)-4-(isopropylamino)pyridin-2-yl)pyrrolo[1,2-b]pyridazine-3-carbonitrile], the EC50 in assay [1] (Homo sapiens, Monocyte) is 68.3 nM. Further, the half-maximal inhibitory concentration (IC50) in assay [2] stood at 1.18 nM.
Regarding `N#Cc1cnn2c(-c3cc(NC4CCOCC4)c(-c4nnc(C56CCC(N)(CC5)CC6)s4)cn3)ccc2c1` [Example 336, 7-(5-(5-(4-aminobicyclo[2.2.2]octan-1-yl)-1,3,4-thiadiazol-2-yl)-4-((tetrahydro-2H-pyran-4-yl)amino)pyridin-2-yl)pyrrolo[1,2-b]pyridazine-3-carbonitrile], in assay [1] (Homo sapiens, Monocyte), the concentration giving a half-maximal response (EC50) is 11 nM. In addition, in assay [2], the IC50 amounted to 0.7 nM.
Regarding “(S)-7-(5-(5-(2-(aminomethyl)pyrrolidine-1-carbonyl)-1,3,4-thiadiazol-2-yl)-4-(isopropylamino)pyridin-2-yl)pyrrolo[1,2-b]pyridazine-3-carbonitrile [Compound 242]”, the concentration giving a half-maximal response (EC50) in assay [1] (human monocytes, second part of Table 2, compounds 33-343, unit inferred) came to 752 nM. For the same compound, in assay [2] (second part of Table 2, compounds 33-343, unit inferred, read-out: IC50 IRAK4-HTBS), the IC50 amounted to 2.76 nM.
